What was measured:
Assay type in all cases: physicochemical
[1] = Pulse voltammetry (SWV/DPV), three-electrode cell: redox potential of first reduction
[2] = Cyclic voltammetry, repeated charging-discharging cycles (integrated area over 100 scans)
[3] = Water solubility by quantitative NMR; settings: for solubility: water (D2O), water, thermodynamic from solid
Protocol: The compound to be tested was dissolved in 100 μl D2O until saturation was reached. Any undissolved compound was filtered off and the filtrate was combined with a standard solution containing a known amount of a calibration compound as an internal reference. The sample is investigated using 1H NMR. […] The solubility of the compound to be tested was then calculated from a relative concentration determination based on the known calibration compound concentration.

Reaction rate (k°) = test: Reaction rate (k°)
[4] = Diffusion coefficient by Levic plot, rotating disk electrode
Protocol: The diffusion coefficient of molecules was measured using Levic plot, obtained using a rotating disk electrode (RDE) setup according to standard procedures.

[5] = Table 2, Ag/AgCl reference, +0.200 V offset applied, glassy carbon working electrode
[6] = Table 3, comparison of transquat, diquat and annulated diquat

| SMILES | Redox Potential (V vs SHE) [1, 5] [V vs SHE] | Redox Potential (V vs SHE) [1, 6] [V vs SHE] | Capacity over 100 cycles ([2]; Table 2) | Capacity over 100 cycles ([2]; Table 3) | Solubility in water (M, at 20° C.) ([3]; Table 3, at 20° C.) [mM] | solubility ([3]; Table 2, at 20°C) [mM] | Reaction Rate (k°, in cm/s) (Reaction rate (k°); Table 2) [cm/s] | Reaction Rate (k°, in cm/s) (Reaction rate (k°); Table 3) [cm/s] | Diffusion coefficient (D, in cm^2s^−1) ([4]; Table 2) | Diffusion coefficient (D, in cm^2s^−1) ([4]; Table 3) | Solubility in water (M, at 20°C) ([3]; Table 2, at 20°C) | solubility ([3]; Table 3, at 20° C.) [mM] |
| --- | --- | --- | --- | --- | --- | --- | --- | --- | --- | --- | --- | --- |
| [Cl-].[Cl-].c1cc2c3[n+](c1)CCc1ccc[n+](c1-3)CC2 | −0.48 | −0.48 | 0.98 | 0.98 | >1500 | > 1500 | 0.00764 | 0.00764 | 1.62 × 10^−5 cm^2s^−1 | 1.62 × 10^−5 cm^2s^−1 |  |  |
| Cc1cc2c3[n+](c1)CCc1cc(C)c[n+](c1-3)CC2.[Cl-].[Cl-] | −0.59 |  | 0.95 |  |  | ~1000 | 0.016 |  | 6.45 × 10^−6 cm^2s^−1 |  |  |  |
| COc1cc[n+]2c3c1CC[n+]1ccc(OC)c(c1-3)CC2.[Cl-].[Cl-] | −0.80 |  | 0.80 |  |  |  | 0.00414 |  | 2.5 × 10^−6 cm^2s^−1 |  | Low |  |
| CCOc1cc2c3[n+](c1)CCc1cc(OCC)c[n+](c1-3)CC2.Cl | −0.80 |  | 0.99 |  |  | > 1500 | 0.00615 |  | 1.41 × 10^−5 cm^2s^−1 |  |  |  |
| [Cl-].[Cl-].c1cc2c3[n+](c1)CCCc1ccc[n+](c1-3)CCC2 | −0.64 |  | 0.98 |  |  | > 1500 | 0.0194 |  | 1.63 × 10^−5 cm^2s^−1 |  |  |  |
| [Br-].[Br-].c1cc2c3[n+](c1)CC[n+]1cccc(c1-3)CC2 [reference compound] |  | −0.42 |  | 0.98 |  |  |  | 0.00768 |  | 9.87 × 10^−6 cm^2s^−1 |  | > 1500 |

Reference: US20250309306A1, “Cationic Viologen Derivatives and Use Thereof in Redox Flow Batteries” (priority 2024, published 2025)
